US20230381142A1, “ANTILEISHMANIAL COMPOUNDS, COMPOSITIONS AND USE THEREOF” (TRUSTEES OF BOSTON UNIVERSITY, priority 2022, published 2023)
Where two headings read alike, the source gives them in different places.

Legend:
[1] = GSK inMac assay, host cell toxicity readout (LD MAC); assay type: cell-based, human; details: human
Method: (§1) The intramacrophage Leishmania donovani activity assay (LD AMMAC) at GlaxoSmithKline was performed as described.
(§2) Given the literature precedents described above and the apparent narrow tolerance for R^3 substitutions observed in the primary screen compounds, a thorough and methodical assessment was undertaken of tolerated groups at the three points of diversity (R^1/R^2/R^3) for the core. At this stage of the project, all analogues were assessed using a battery of assays performed in-house at GlaxoSmithKline. For antileishmanial activity, GSK's inMac assay was utilized. This assay provides two readouts of compound potency: average number of intracellular amastigotes per infected cell (AMMAC) EC50, percentage of infected cells per well (INFCELL) EC50, as well as a toxicity output derived from the number of host cells (MAC EC50). In addition, compounds were assessed for toxicity against HepG2 cells (HEPG2 EC50). Here, AMMAC EC50 values were focused on for relative potency assessments. […] It should be noted that for all compounds assessed in this project, the measured toxicity against THP-1 macrophages either equaled or exceeded that of HepG2 hepatocytes, therefore the MAC SI is used here as the more conservative estimate of therapeutic index.

[2] = tested on: L. donovani intracellular amastigotes infecting THP-1 macrophages; assay: GSK intramacrophage L. donovani assay (LD AMMAC, inMac; Assay Conditions C); assay type: cell-based; details: Leishmania donovani
Method: Assay Conditions C: The intramacrophage Leishmania donovani activity assay was performed as described in Antimicrob Agents Chemother (2013) 57(7):2913-22.
as §1, §2

[3] = footnote c, read-out: THP-1 Host Cell CC50
[4] = THP-1 cells, values marked c, read-out: L. donovani amastigotes EC50 (THP-1 cells)
[5] = values marked c: THP-1 cells, read-out: L. donovani amastigotes EC50 (μM, THP-1 or B10R cells)

EC50 [2, 4] | EC50 [2, 5] | SMILES | CC50 [1, 3] | CC50 ([1]; host THP-1 cells)
3.2 µM | – | COc1ccc(N2C(=O)c3[nH]nc(CC(C)C)c3C2c2ccccc2F)cc1 (stereo not shown) [CMLD011102] | 31.6 µM | –
31.6 µM | – | CC(C)Cc1n[nH]c2c1C(c1ccccc1Br)N(CCN1CCCC1)C2=O (stereo not shown) [BUCMD00798] | > 50 µM | –
> 50 µM | – | COc1ccc(N2C(=O)c3[nH]nc(CC(C)C)c3C2c2cc(F)nc(F)c2)cc1 (stereo not shown) [CMLD011028] | > 50 µM | –
12.6 µM | – | COc1ccc(CN2C(=O)c3[nH]nc(CC(C)C)c3C2c2ccc(F)cc2)cc1 (stereo not shown) [CMLD011026] | 31.6 µM | –
20 µM | – | CC(C)Cc1n[nH]c2c1C(c1ccc(F)cc1)N(c1ccccn1)C2=O (stereo not shown) [CMLD011095] | > 50 µM | –
> 50 µM | – | CC(C)Cc1n[nH]c2c1C(c1ccc(F)cc1)N(C(CO)CO)C2=O (stereo not shown) [BUCMD00817] | > 50 µM | –
> 100 µM | – | CC(C)Cc1n[nH]c2c1C(c1ccc(F)cc1)N(c1ccc(S(N)(=O)=O)cc1)C2=O (stereo not shown) [CMLD011495] | 20 µM | –
0.5 µM | – | COc1ccc(N2C(=O)c3[nH]nc(CC(C)C)c3C2c2ccc(F)cc2OC)cc1F (stereo not shown) [CMLD011573] | 7.9 µM | –
1 µM | – | COc1ccc(N2C(=O)c3[nH]nc(CC(C)C)c3[C@@H]2c2ccccc2Br)cn1 [CMLD010976] | 20 µM | –
31.6 µM | – | CC(C)Cc1n[nH]c2c1C(c1cccc(C(F)(F)F)c1)N(c1ccc(Br)cc1)C2=O (stereo not shown) [CMLD011081] | 31.6 µM | –
> 100 µM | – | CC(C)Cc1n[nH]c2c1C(c1ccc(F)cc1)N(c1ccc3[nH]cnc3c1)C2=O (stereo not shown) [CMLD011557] | 20 µM | –
3.2 µM | – | CC(C)Cc1n[nH]c2c1C(c1ccc(F)cc1)N(c1ccccc1N(C)C)C2=O (stereo not shown) [CMLD011499] | 10 µM | –
10 µM | – | CC(C)Cc1n[nH]c2c1[C@H](c1ccc(F)cc1)N(c1ccc3ncnn3c1)C2=O [CMLD010993] | 25.1 µM | –
1.6 µM | – | COc1ccc(N2C(=O)c3c(c(CC(C)C)nn3C)C2c2ccc(F)cc2)cc1 (stereo not shown) [CMLD010989] | 25.1 µM | –
– | 6.3 µM | C=CCn1nc2c(c1CC(C)C)C(c1ccc(F)cc1)N(c1ccc(OC)cc1)C2=O (stereo not shown) [CMLD010984] | – | 31.6 µM
6.3 µM | – | COc1ccc(N2C(=O)c3[nH]nc(CC(C)C)c3C2c2cc(C(F)(F)F)ccc2C(F)(F)F)cc1 (stereo not shown) [CMLD010996] | 25.1 µM | –
7.9 µM | – | COc1ccc(N2C(=O)c3[nH]nc(CC(C)C)c3C2c2cccc(Br)c2)cc1 (stereo not shown) [CMLD010891] | 25.1 µM | –
15.9 µM | – | Cc1ccc(CN2C(=O)c3[nH]nc(CC(C)C)c3C2c2ccc(F)cc2)o1 (stereo not shown) [CMLD011092] | 39.8 µM | –
7.9 µM | – | COc1ccc(N2C(=O)c3[nH]nc(CC(C)C)c3C2C2CCCCC2)cc1 (stereo not shown) [CMLD010892] | 25.1 µM | –
10 µM | – | COc1ccc(N2C(=O)c3[nH]nc(-c4ccc(OCc5ccccc5)cc4)c3C2c2ccc(F)cc2)cc1 (stereo not shown) [BUCMD00811] | 15.8 µM | –
1.6 µM | – | COC(=O)c1ccc(N2C(=O)c3[nH]nc(CC(C)C)c3C2c2ccc(F)cc2)cc1 (stereo not shown) [CMLD011033] | 31.6 µM | –

EC50 [2, 4] | EC50 [2, 5] | SMILES | CC50 [1, 3] | CC50 ([1]; host THP-1 cells)
6.3 µM | – | COc1ccc(N2C(=O)c3[nH]nc(CC(C)C)c3C2c2ccsc2)cc1 (stereo not shown) [CMLD011104] | > 50 µM | –
– | 3.2 µM | CC(C)Cc1n[nH]c2c1C(c1ccccc1Cl)N(c1ccc(C(C)(C)C)cc1)C2=O (stereo not shown) [CMLD011047] | – | 7.9 µM
25.1 µM | – | CO[C@H]1CC[C@H](N2C(=O)c3[nH]nc(CC(C)C)c3C2c2ccc(F)cc2)CC1 (stereo partly shown) [CMLD011036] | > 50 µM | –
5 µM | – | CC(C)Cc1n[nH]c2c1C(c1cccc(Cl)c1)N(c1ccc3c(c1)OCO3)C2=O (stereo not shown) [CMLD011132] | 20 µM | –
12.6 µM | – | COCn1nc(CC(C)C)c2c1C(=O)N(c1ccc(OC)cc1)C2c1ccc(F)cc1 (stereo not shown) [BUCMD00813] | 31.6 µM | –
25.1 µM | – | COC(=O)c1ccc(C2c3c(CC(C)C)n[nH]c3C(=O)N2c2ccc(OC)cc2)cc1 (stereo not shown) [CMLD011034] | 39.8 µM | –
20 µM | – | COc1cccc(N2C(=O)c3[nH]nc(CC(C)C)c3C2c2ccsc2)c1 (stereo not shown) [CMLD010880] | 39.8 µM | –
6.3 µM | – | COc1ccc(N2C(=O)c3[nH]nc(CCc4ccccc4)c3C2c2ccc(F)cc2)cc1 (stereo not shown) [CMLD010849] | 25.1 µM | –
2 µM | – | COc1ccc(N2C(=O)c3[nH]nc(CC(C)C)c3C2c2ccc(F)cc2F)cc1 (stereo not shown) [CMLD011079] | 25.1 µM | –
12.6 µM | – | COc1cccc(N2C(=O)c3[nH]nc(CC(C)C)c3C2c2ccc(F)cc2)c1 (stereo not shown) [CMLD010895] | 31.6 µM | –
15.9 µM | – | COc1ccc(N2C(=O)c3[nH]nc(CC(C)C)c3C2C2CCN(Cc3ccccc3)CC2)cc1 (stereo not shown) [CMLD010882] | 20 µM | –
2.5 µM | – | CC(C)Cc1n[nH]c2c1C(C1CCCCC1)N(c1ccc(C(C)(C)C)cc1)C2=O (stereo not shown) [CMLD011042] | ≥ 50.1 µM | –
– | 7.9 µM | CCCn1nc2c(c1CC(C)C)C(c1ccc(F)cc1)N(c1ccc(OC)cc1)C2=O (stereo not shown) [CMLD010990] | – | 25.1 µM
0.5 µM | – | COc1ccc(N2C(=O)c3[nH]nc(CC(C)C)c3C2c2ccc(F)cc2C)cc1 (stereo not shown) [BUCMD00800] | 25.1 µM | –
2.5 µM | – | CC(C)Cc1n[nH]c2c1C(c1c(Cl)cccc1Cl)N(c1ccc3c(c1)OCO3)C2=O (stereo not shown) [CMLD011547] | 20 µM | –
6.3 µM | – | COc1ccc(N2C(=O)c3[nH]nc(CC(C)C)c3C2c2c(Cl)cccc2Cl)cc1F (stereo not shown) [CMLD011568] | 20 µM | –
0.5 µM | – | COc1ccc(N2C(=O)c3[nH]nc(CC(C)C)c3C2c2ccccc2OC)cc1 (stereo not shown) [CMLD010994] | 25.1 µM | –
7.9 µM | – | COc1ccc(N2C(=O)c3[nH]nc(CC(C)C)c3C2c2cccs2)cc1 (stereo not shown) [CMLD011110] | > 50 µM | –
2 µM | – | COc1ccc(N2C(=O)c3[nH]nc(CC(C)C)c3C2c2cccc(C(F)(F)F)c2)cn1 (stereo not shown) [CMLD010898] | 20 µM | –
5 µM | – | CC(C)Cc1n[nH]c2c1C(c1ccc(F)cc1)N(c1ccc(O)cc1)C2=O (stereo not shown) [CMLD011029] | 39.8 µM | –
5 µM | – | COc1cc(N2C(=O)c3[nH]nc(CC(C)C)c3C2c2cccc(C(F)(F)F)c2)cc(OC)c1OC (stereo not shown) [BUCMD00803] | 12.6 µM | –

EC50 [2, 4] | EC50 [2, 5] | SMILES | CC50 [1, 3] | CC50 ([1]; host THP-1 cells)
> 50 µM | – | COc1ccc(N2C(=O)c3[nH]nc(CC(C)C)c3C2c2ccncc2)cc1 (stereo not shown) [CMLD011142] | > 50 µM | –
> 50 µM | – | COc1ccc(N2C(=O)c3[nH]nc(CC(C)C)c3C2c2ccncn2)cc1 (stereo not shown) [CMLD010887] | > 50 µM | –
– | 6.3 µM | COc1cccc(N2C(=O)c3[nH]nc(CC(C)C)c3C2C2CCCCC2)c1 (stereo not shown) [CMLD011044] | – | ≥ 50.1 µM
10 µM | – | COc1ccc(N2C(=O)c3[nH]nc(CC(C)C)c3C2c2ncccc2Cl)cc1 (stereo not shown) [CMLD011575] | 20 µM | –
10 µM | – | COc1ccc(N2C(=O)c3[nH]nc(CC(C)C)c3C2c2cncc(OC)c2)cc1 (stereo not shown) [CMLD010886] | 20 µM | –
> 100 µM | – | CC(C)Cc1n[nH]c2c1C(c1ccc(F)cc1)N(c1ccc3[nH]c(O)nc3c1)C2=O (stereo not shown) [CMLD011556] | 20 µM | –
2.5 µM | – | CC(C)Cc1n[nH]c2c1C(c1ccc(F)cc1)N(c1ccc3c(c1)OC(F)(F)O3)C2=O (stereo not shown) [CMLD011105] | 12.6 µM | –
12.6 µM | – | CC(C)Cc1n[nH]c2c1C(c1ccc(F)cc1)N(c1ccc(F)cc1F)C2=O (stereo not shown) [CMLD011097] | 39.8 µM | –
20 µM | – | CCn1nc2c(c1CC(C)C)C(c1ccc(F)cc1)N(c1ccc(OC)cc1)C2=O (stereo not shown) [BUCMD00810] | > 50 µM | –
7.9 µM | – | COc1cccc(N2C(=O)c3[nH]nc(CC(C)C)c3C2c2ccccc2Cl)c1 (stereo not shown) [CMLD010881] | 15.8 µM | –
7.9 µM | – | COc1ccccc1N1C(=O)c2[nH]nc(CC(C)C)c2C1c1ccsc1 (stereo not shown) [CMLD011138] | 15.8 µM | –
7.9 µM | – | COc1ccc(N2C(=O)c3[nH]nc(CC(C)C)c3C2c2cccc(Cl)c2)cc1 (stereo not shown) [CMLD011099] | 39.8 µM | –
7.9 µM | – | CC(C)Cc1n[nH]c2c1C(c1cccc(C(F)(F)F)c1)N(c1ccc3ncnn3c1)C2=O (stereo not shown) [BUCMD00804] | ≥ 50.1 µM | –
20 µM | – | CC(C)Cc1n[nH]c2c1C(c1cccc(C(F)(F)F)c1)N(CCN1CCCC1)C2=O (stereo not shown) [CMLD011126] | 39.8 µM | –
> 100 µM | – | COc1ccc(N2C(=O)c3[nH]nc(CC(C)C)c3C2c2cnccc2Cl)cc1 (stereo not shown) [CMLD011579] | 20 µM | –
39.8 µM | – | COC(=O)c1ccc(N2C(=O)c3[nH]nc(CC(C)C)c3C2C2CCCCC2)cc1 (stereo not shown) [CMLD011094] | > 50 µM | –
3.2 µM | – | COc1ccc(N2C(=O)c3[nH]nc(CC4CCCCC4)c3C2c2ccc(F)cc2)cc1 (stereo not shown) [BUCMD00812] | 20 µM | –
1 µM | – | COc1ccc(N2C(=O)c3[nH]nc(CC(C)C)c3C2c2c(Cl)cccc2Cl)cc1 (stereo not shown) [BUCMD00797] | 2.5 µM | –
15.9 µM | – | COc1ccc(N2C(=O)c3[nH]nc(CC(C)C)c3C2c2cncs2)cc1 (stereo not shown) [CMLD010991] | > 50 µM | –
6.3 µM | – | COc1ccc(N2C(=O)c3[nH]nc(CC(C)C)c3C2c2ccc(Br)cc2)cc1 (stereo not shown) [CMLD010889] | 15.9 µM | –
